Test results as given in patent US20070218023A1, “Uses of melatonin in skin” (priority 2006, published 2007).
“Also recorded” adds a separate entry of the source. Each block holds one molecule with its values, some of them ahead of it.

Assays:
[1] = tested on: HaCaT keratinocytes; assay: Kinetics of melatonin metabolism in untreated keratinocytes (intracellular levels); assay type: in vitro ADME, human; settings: not preincubated with melatonin, no UV; for intracellular level in untreated keratinocytes after 24 hrs: cultivation for 24 hrs
Experimental: (§1) Parallel control dishes were incubated with PBS without melatonin.
(§2) Aliquots ([…]) of samples from the cell suspension and cell-free experiments were separated on an LC-MS QP8000a (Shimadzu, Japan) equipped with diode array and single quadrupole mass-spectrometric detectors. The separation system consisted of a Restec Allure C18 reverse-phase column (150×4.6 mm; 5 μm particle size; and 60 A pore size) with mobile phase consisting of 25% acetonitrile and 0.1% acetic acid. Elution was carried out isocratically at flow rate of 0.75 ml/min and temperature of 40° C. The eluent was routed to the mass-spectrometric electrospray interface (ESI) set in positive mode and using nitrogen as the nebulizing gas. Mass-spectrometry parameters were as follows: nebulizer gas flow rate, 4.5 l/min; electrospray voltage, 4.5 kV; and curved desolvation line (CDL) heater temperature, 250° C. The selected ion monitoring (SIM) mode was used to detect ions with m/z=249 (monohydroxymelatonin); m/z=265 (dihydroxymelatonin and AFMK); m/z=237 (AMK); and m/z=233 (melatonin). System control and data acquisition were performed with the LC-MS workstation Class-8000 software (Shimadzu, Japan).

[2] = tested on: HaCaT keratinocytes; assay: Melatonin and metabolites in supernatants and cell lysates of UV-irradiated HaCaT keratinocytes (HPLC, LC-MS); assay type: in vitro ADME, human
Experimental: as §1
(§3) Internal standards for HPLC were dissolved in absolute ethanol. […] AFMK was produced as described previously (48).
(§4) Irradiation experiments were performed with a Biorad UV transluminator 2000 (Bio-RAD Laboratories, Hercules, Calif.), calibrated as described previously (37). Briefly, a scanning double monochromator spectroradiometer (Model OL 754, Optronic Laboratories, Orlando, Fla.) was used to scan emission of wavelengths from 250 to 800 nm at 1 nm increments. The spectroradiometer had been calibrated with an NIST traceable tungsten-halogen spectral irradiance standard (Model 75-10E, Optronic Laboratories, Orlando, Fla.) with a precision current source (Model 65, Optronic Laboratories, Orlando, Fla.). An additional calibration module (Model 752-150, Optronic Laboratories, Orlando, Fla.) measured both photometric gain and wavelength accuracy. Wavelength calibration and gain were established or verified before each experimental use. The UV source emission (shown in FIG. 1) consisted primarily of UVB light (wavelength 280-320 nm; 60%), with minor output in the UVA (320-400 nm) and UVC (120-280 nm) range (˜30% and ˜10%, respectively). Melatonin photoproducts generation was performed after irradiation at the UV doses of 25, 50, 75 or 100 mJ/cm^2, as indicated in the figures.
as §2

[3] = UVR irradiation of melatonin solution in a cell-free system (HPLC, LC-MS); assay type: physicochemical; settings: melatonin in PBS, UV-doses of 25, 50 and 100 mJ/cm^2
Experimental: as §1, §3
as §4, with “Melatonin photoproducts generation was performed after irradiation at the UV doses of 25, 50, 75 or 100 mJ/cm^2, as indicated in the figures.” left out
Peak areas increased linearly with UV-doses (FIG. 2). […] Product identity was determined by comparison with known standards of melatonin metabolites. […]

[4] = tested on: HaCaT keratinocytes; assay: Morphology analysis of keratinocytes after UV irradiation; assay type: cell-based, human; settings: melatonin 10^−3 M, 50 mJ/cm^2, 24 hours after irradiation
Experimental: Cell media from overnight incubation was removed and replaced with fresh media containing melatonin at the concentration of 10^−3 M, the maximum effective concentration identified in previous studies (45, 46). […] Irradiation of the Petri dishes was performed with UVR from below, and after irradiation PBS was replaced by fresh culture media for 24 or 48 hrs. Paraely, cells were incubated with or without melatonin, but not subjected to irradiation to exclude effects of melatonin alone.
Digital pictures from six to ten randomly chosen fields per Petri dish for each experimental condition were acquired at different time points after UV exposure (0, 24 and 48 hrs) with a NIKON Eclipse TE300 microscope (Melville, N.Y.). At 24 and 48 hrs after UV exposure, pictures of detached cells were first taken, then detached cells were removed and another set of pictures was acquired to assess the degree of confluency of cells which were still attached to the bottom of the culture dish. Pictures were recorded and analyzed with MetaVue software. Then, keratinocytes were harvested from Petri dishes by trypsinization, washed three times with ice-cold PBS and frozen in −80° C. until further processing.

[5] = tested on: HaCaT keratinocytes; settings: human
[6] = tested on: HaCaT keratinocytes; settings: [3H]-labeled melatonin tracer only; cited from earlier work
[7] = tested on: HaCaT keratinocytes; assay: Mitochondrial membrane potential (ΔΨ) using JC-1, confocal microscopy; assay type: cell-based, human; settings: for mitochondrial membrane potential, melatonin alone: melatonin 10−4 M, without UV-exposure
Experimental: Mitochondrial inner membrane potential (ΔΨ) in immortalized HaCaT keratinocytes was measured by using confocal microscopy with 5,5′,6,6′tetrachloro-1,1′,3,3′-tetraethylbenzimidazol-carbocyanine iodide (JC-1) (Molecular Probes, Carlsbad, Calif.) (66). JC-1 selectively enters mitochondria and aggregates when the membrane potential values exceed 80-100 mV, causing a shift in fluorescence from 530 nm (green) to 590 nm (red). For experiments, human HaCaT keratinocytes were seeded in Lab-Tek II 8-well chambered coverglass (Nalge Nunc, Inc., Naperville, Ill.) and grown until 90-100% of confluence. Culture media were removed and cells washed with PBS and then incubated for 30 or 120 min with melatonin at […]. Stock solution of melatonin was dissolved in DMEM and added to the culture media. After incubation, cells were washed twice with PBS and subjected to irradiation with UVB at the dose of 50 mJ/cm^2 or incubated with serum free medium containing 1 mM H2O2 for 1 h. After irradiation cells were incubated in DMEM containing 5% FBS and supplemented with JC-1 (2.5 μg/ml) for 30 min at 37° C. […] Images were acquired from three to six randomly chosen fields for each experimental condition showing nuclear cross-section. Green and red channels were merged and ratio of red to green channel was shown in blue.
Bands of immunoblots were evaluated by measurement of density with Scion Image analysis software (NIH). Density values from two or three experiments were taken for calculation of mean values and standard deviation. For statistical analysis of mitochondrial membrane potential, images showing nuclear cross-section were acquired from three to six randomly chosen fields -or each experimental condition. Ration of red/green emission was calculated using ImageJ software (NIH, Bethesda, […].) and differences were analysed with Student's t-test and were considered significant when p-value was <0.05.

intracellular level in untreated keratinocytes, initial (basal) [1]: 7.8 pmoles/1000 cells
intracellular level in untreated keratinocytes after 24 hrs [1]: 20.4 pmoles/1000 cells
Structure (SMILES): COc1ccc2[nH]c(O)c(CCNC(C)=O)c2c1 [2-hydroxymelatonin]

intracellular detection ([2]; basal conditions and after UVR exposure): not detected intracellularly
Structure (SMILES): COc1ccc2[nH]cc(CCNC(C)=O)c2c1O [4-hydroxymelatonin]

intracellular level in untreated keratinocytes, initial (basal) [1]: 53.4 pmoles/1000 cells
intracellular level in untreated keratinocytes after 24 hrs [1]: 16.8 pmoles/1000 cells
Structure (SMILES): COc1cc2c(CCNC(C)=O)c[nH]c2cc1O [6-hydroxymelatonin]

intracellular level in untreated keratinocytes, initial (basal) [1]: 17.4 pmoles/1000 cells
intracellular level in untreated keratinocytes after 24 hrs [1]: 33.6 pmoles/1000 cells
AFMK level in supernatants, irradiated vs nonirradiated ([2]; cells not preincubated with melatonin): ~13 fold
AFMK level in supernatants, irradiated vs non-irradiated ([2]; melatonin preincubation, 50 mJ/cm^2): ~100 fold
AFMK level in cell lysates, irradiated vs nonirradiated ([2]; melatonin preincubation, UVR): approximately 3.5 fold
AFMK level in native keratinocytes (lysates), UV-stimulated increase ([2]; not preincubated with melatonin): 1.9 fold
relative HPLC peak size of photoproduct [3]: largest peak
Structure (SMILES): COc1ccc(NC=O)c(C(=O)CCNC(C)=O)c1 [AFMK, N^1-acetyl-N^2-formyl-5-methoxykynuramine]
time of highest level in supernatants post UV exposure ([2]; HaCaT preincubated with 10−3 M melatonin, UVR): 40 min

detection of AMK after UVR exposure [2]: could not be detected
Structure (SMILES): COc1ccc(N)c(C(=O)CCNC(C)=O)c1 [AMK, N^1-acetyl-5-methoxykynuramine]

intracellular level in untreated keratinocytes, initial (basal) [1]: 146.0 pmoles/1000 cells
intracellular level in untreated keratinocytes after 24 hrs [1]: 65.0 pmoles/1000 cells
melatonin level in supernatants after UV exposure, % of nonirradiated melatonin solution ([2]; human): 99.7%
intracellular melatonin concentration [5]: approximately 10−6 M
uptake of melatonin into the cell, ratio of intra- to extracellular melatonin (% of applied levels) [5]: 0.125%
photoproducts generated by UV irradiation of melatonin solution [3]: generated four compounds
Structure (SMILES): COc1ccc2[nH]cc(CCNC(C)=O)c2c1 [melatonin]
keratinocyte confluency and empty spaces after UV irradiation [4]: confluency was higher compared to non-treated control and no empty spaces were seen
melatonin uptake in HaCaT keratinocytes (Nickel and Wohlrab) [6]: 0.097%
UV-induced mitochondrial membrane potential reduction, red/green fluorescence ratio ([7]; melatonin 10^−3 to 10^−6 M for 30 or 120 min, UVB 50 mJ/cm^2): attenuated by melatonin in a dose dependent manner; also recorded: prevented membrane potential reduction
H2O2-induced reduction of mitochondrial membrane potential ([7]; melatonin 10^−4 M, H2O2 1 mM, 60 minutes): significantly counteracted
mitochondrial membrane potential, melatonin alone [7]: no change of mitochondrial membrane potential
mitochondrial membrane potential, melatonin alone ([7]; listed as Melatonin): did not influence mitochondrial membrane potential
mitochondrial membrane potential after UVB (JC-1 images) ([7]; preincubation with melatonin 10^−4 M, UVB 50 mJ/cm^2): preserved mitochondrial membrane potential
